Entries after “also recorded” stand apart in the source; their conditions may differ.
What was measured:
Type in all cases: cell-based
hCB1 mutant I169A^2.56 = molecular target: T1, hCB1 mutant I169A^2.56 (Homo sapiens, UniProt P21554, I169A); test: pIRES G protein dissociation BRET assay, I169A mutant; conditions: for G protein dissociation, AUC of 10 μM compound (maximal response): 10 μM ligand alone; for Allosteric agonism: G protein dissociation in the absence of an orthosteric ligand: 10 μM; for Allosteric agonism: G protein dissociation in the absence of an orthosteric ligand / Allosteric modulation of CP55940 (PAM activity): result in words; for Allosteric modulation of CP55940 (PAM activity): 10 μM allosteric ligand
T1 construct: expressed in transfected cells; host or cells: HEK293
T1 sequence (P21554 whole entry I169A): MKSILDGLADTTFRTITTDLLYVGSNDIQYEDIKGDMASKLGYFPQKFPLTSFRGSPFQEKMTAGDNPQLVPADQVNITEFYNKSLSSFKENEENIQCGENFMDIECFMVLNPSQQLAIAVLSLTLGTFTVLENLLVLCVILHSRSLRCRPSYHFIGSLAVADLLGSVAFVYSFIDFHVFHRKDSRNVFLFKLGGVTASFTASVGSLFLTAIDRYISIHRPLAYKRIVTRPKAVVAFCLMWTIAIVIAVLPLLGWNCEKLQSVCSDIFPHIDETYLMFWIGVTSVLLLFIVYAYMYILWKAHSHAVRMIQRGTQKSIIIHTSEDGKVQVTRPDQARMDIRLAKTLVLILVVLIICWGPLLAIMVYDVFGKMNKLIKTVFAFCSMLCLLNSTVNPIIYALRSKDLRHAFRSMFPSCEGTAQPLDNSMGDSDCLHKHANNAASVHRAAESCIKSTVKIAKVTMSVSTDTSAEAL
Method: (§1) Mutagenesis studies using the pIRES G protein dissociation assay were performed using human embryonic kidney 293 (HEK293) wild-type cells transiently transfected with pplss-3HA-hCB1 [31] or modified receptor. All cells were cultured in Dulbecco’s Modified Eagle’s Medium (DMEM) supplemented with 10% fetal bovine serum (FBS), grown in […] vented-cap flasks, and maintained in a 37° C incubator at 5% CO2.
(§2) Mutants of pplss-3HA-hCB1 (WT, pEF-V4-HisA (pEF4a) construct) were generated using a modified QuikChange® (Stratagene, San Diego, CA, USA) site-directed mutagenesis approach using KAPA HiFi Hotstart Polymerase (KAPA Biosystems, Roche, Basel, Switzerland). Briefly, single-stranded primers used to modify one or two base pairs within the target amino acid using PCR were purchased from Integrated DNA Technologies (IDT, Coralville, IA, USA). All pplss-hCB1 mutants were generated using the pplss-3HA-hCB1 pEF4a as parental DNA. PCR products were generated using recommended cycling conditions and treated with Dpn1 (New England Biolabs, Ipswich, MA, USA) overnight at 37° C to digest methylated parental DNA. PCR products were electrophoresed and run on an agarose gel (1% (w.v^−1) agarose, HydraGene, Piscataway, NJ, USA) containing 0.25 μg/mL ethidium bromide (Sigma-Aldrich, St. Louis, MO, USA). Gels were run in 40 mM TRIS-acetate buffer containing […] (pH 8.3) at 100 V for 30 min, maximum current and included a 1kb+ DNA ladder (Invitrogen, Thermo Fisher Scientific, Carlsbad, CA, USA) for reference. Gels were imaged using an UVTech Alliance Q9 Mini transilluminator (UVTech Alliance, Cambridge, UK). Digested products were then used to transform NEB 5α competent E. coli cells in accordance with manufacturer’s instructions. Briefly, transformed PCR products were grown overnight on 8.5 mL Luria Broth agar plates (containing 100 μg/mL ampicillin) at 37° C. Single bacterial colonies were picked and inoculated in Luria Broth (containing 100 μg/mL ampicillin) and grown overnight in a shaking incubator at 37° C. Plasmids were then harvested and purified using a Qiagen miniprep kit (Qiagen, Hilden, Germany) and validated using sequencing (Genetics Analysis Service, University of Otago, Dunedin, New Zealand).
(§3) Dissociation of the G protein heterotrimer, specifically Gαi1, Gβ1, and Gγ2, was investigated using a bioluminescence resonance energy transfer (BRET) assay with the pIRES biosensor first described by and adapted by.
(§4) Briefly, 3 × 10^6 WT HEK293 cells were seeded into 10 cm culture dishes (Corning, Corning, NY, USA; one dish for the control receptor and one for each modified receptor) and incubated at 37 °C for 24 h to gain 50–60% confluency. Culture medium was then replaced and transfection mixtures containing 3 μg pIRES vector and 1 μg receptor (either pplss-hCB1 or modified receptor) were prepared (4 μg total DNA). Plasmids were initially diluted in sterile Milli-Q water before being diluted in OptiMEM reduced serum medium (Thermo Fisher Scientific, Waltham, MA, USA) and combined with […] polyethylenimine (PEI)-max (1:9 DNA:PEI-max ratio) and incubated at room temperature for 20 min. Transfection mixtures were then added to cells via dropwise addition, and cells were incubated at 37 °C for 24 h. Transfected cells were lifted and plated at 50,000 cells/well into poly-d-lysine (PDL; Sigma-Aldrich) coated white 96-well CulturPlates (PerkinElmer, Waltham, MA, USA) and incubated for a further 24 h at 37 °C.
(§5) To assay, the culture medium was aspirated and cells were washed with phosphate buffered saline (PBS) and replaced with BRET assay medium (phenol red free DMEM containing 25 mM HEPES and supplemented with 1 mg/mL bovine serum albumin; BSA, MP Biomedicals, Auckland, New Zealand) for 30 min prior to drug addition (serum starve). Drugs were prepared at 10 × concentration in BRET assay medium, combined in a polypropylene V-bottom plate, and incubated at 37° C prior to drug stimulation.

hCB1 mutant F408A^8.54 = molecular target: T2, hCB1 mutant F408A^8.54 (Homo sapiens, UniProt P21554, F408A); test: pIRES G protein dissociation BRET assay, F408A mutant; conditions: for G protein dissociation, AUC of 10 μM compound (maximal response): 10 μM ligand alone
T2 construct: expressed in transfected cells; host or cells: HEK293
T2 sequence (P21554 whole entry F408A): as the sequence (P21554 whole entry I169A) above, with A169I, F408A counted along it
Method: as §1, §2, §3, §4, §5

hCB1 mutant F237A^4.46 = molecular target: T3, hCB1 mutant F237A^4.46 (Homo sapiens, UniProt P21554, F237A); test: pIRES G protein dissociation BRET assay, F237A mutant; conditions: for G protein dissociation, AUC of 10 μM compound (maximal response): 10 μM ligand alone
T3 construct: expressed in transfected cells; host or cells: HEK293
T3 sequence (P21554 whole entry F237A): as the sequence (P21554 whole entry I169A) above, with A169I, F237A counted along it
Method: as §1, §2, §3, §4, §5

hCB1 mutant F289A^5.53 = molecular target: T4, hCB1 mutant F289A^5.53 (Homo sapiens, UniProt P21554, F289A); test: pIRES G protein dissociation BRET assay, F289A mutant; conditions: for G protein dissociation, AUC of 10 μM compound (maximal response): 10 μM ligand alone
T4 construct: expressed in transfected cells; host or cells: HEK293
T4 sequence (P21554 whole entry F289A): as the sequence (P21554 whole entry I169A) above, with A169I, F289A counted along it
Method: as §1, §2, §3, §4, §5

WT hCB1 = molecular target: T5, WT hCB1 (Homo sapiens, UniProt P21554); test: pIRES G protein dissociation BRET assay, WT hCB1; conditions: for Allosteric modulation of maximal CP55940-induced G protein dissociation / Effect on the potency of CP55940-induced G protein dissociation: 10 μM allosteric ligand; for Allosteric modulation of maximal CP55940-induced G protein dissociation / Effect on the potency of CP55940-induced G protein dissociation / Allosteric agonism: G protein dissociation in the absence of an orthosteric ligand: result in words; for G protein dissociation, AUC of 10 μM compound (maximal response): 10 μM ligand alone
T5 construct: expressed in transfected cells; host or cells: HEK293
T5 sequence (P21554 whole entry): as the sequence (P21554 whole entry I169A) above, with A169I counted along it
Method: as §1, §3, §4
To assay, the culture medium was aspirated and cells were washed with phosphate buffered saline (PBS) and replaced with BRET assay medium (phenol red free DMEM containing 25 mM HEPES and supplemented with 1 mg/mL bovine serum albumin; BSA, MP Biomedicals, Auckland, New Zealand) for 30 min prior to drug addition (serum starve). Drugs were prepared at 10 × concentration in BRET assay medium, combined in a polypropylene V-bottom plate, and incubated at 37° C prior to drug stimulation. Coelenterazine-h (Nanolight Technology, Prolume Ltd, Pinetop, AZ, USA) was prepared at 10 × concentration in BRET assay medium (final concentration 5 μM) and dispensed to cells immediately prior to drug stimulation. Plates were transferred to the LUMIstar Omega plate reader (BMG Labtech GmbH, Ortenburg, BW, Germany) and luminescence (475 and 535 nm) was detected simultaneously in the dark with BRET1 filters for approximately 5 min to establish a baseline BRET ratio. Drugs were added to cells, plates were returned to the LUMIstar and luminescence was detected for a further 25 min. BRET ratios (475/535) were calculated in Omega MARS software v 3.32, exported, and data were analysed using GraphPad Prism v8. Baseline correction was performed using an in-built function in GraphPad Prism, subtracting vehicle BRET ratios from matched conditions. Area under the curve (AUC) analysis was performed in GraphPad Prism using an in-built function to obtain concentration response data.
All data analysis was performed using GraphPad Prism v8. Sigmoidal concentration series were generated by performing AUC analysis and fit using three-parameter nonlinear regression curves. Statistical analyses were performed using data interpolated from nonlinear regression curves using parameters derived from five independent biological replicates. Both one- and two-way repeated measures ANOVA and paired t-tests were used where appropriate (specified in-text), and posthoc tests, specified in text, were performed when significance was reached (p < 0.05). Time course data presented in this manuscript are pooled data (n = 5) and expressed as mean ± SEM. Concentration response data are representative, data expressed as mean ± SD from technical triplicates, to avoid misestimation of parameters from combined/pooled data.

[1] = in the presence of 10 μM GAT228
[2] = in the presence of 10 μM GAT229
[3] = top of the curve (maximal response)
[4] = 10 μM CP55940 in the presence of 10 μM ZCZ011

SMILES | G protein dissociation, AUC of 10 μM compound (maximal response) (hCB1 mutant I169A^2.56) | Allosteric agonism: G protein dissociation in the absence of an orthosteric ligand (hCB1 mutant I169A^2.56) | G protein dissociation, AUC of 10 μM compound (maximal response) (hCB1 mutant F408A^8.54) | G protein dissociation, AUC of 10 μM compound (maximal response) (hCB1 mutant F237A^4.46) | G protein dissociation, AUC of 10 μM compound (maximal response) (hCB1 mutant F289A^5.53) | Allosteric modulation of maximal CP55940-induced G protein dissociation (WT hCB1) | Effect on the potency of CP55940-induced G protein dissociation (WT hCB1) | G protein dissociation, AUC of 10 μM compound (maximal response) (WT hCB1) | Allosteric agonism: G protein dissociation in the absence of an orthosteric ligand (WT hCB1) | Allosteric modulation of CP55940 (PAM activity) (hCB1 mutant I169A^2.56) | further results
O=[N+]([O-])C[C@H](c1ccccc1)c1c(-c2ccccc2)[nH]c2ccccc12 [GAT228] | 30.0 ± 5.9 | abolished; also recorded: inhibited constitutive G protein dissociation | −90.3 ± 8.3 | −40.8 ± 2.8 | −97.4 ± 7.2 | did not alter CP55940-induced G protein dissociation | small but significant decrease in the potency of CP55940 | −105.7 ± 7.2 | increased wild-type G protein dissociation |  | 
O=[N+]([O-])C[C@@H](c1ccccc1)c1c(-c2ccccc2)[nH]c2ccccc12 [GAT229] | 54.8 ± 7.5 | abolished; also recorded: inhibited constitutive G protein dissociation | −110.0 ± 8.6 | −52.4 ± 5.2 | −123.6 ± 5.9 | increased maximal CP55940-induced G protein dissociation | Neither GAT229 nor GAT228 increased the potency | −148.6 ± 7.2 | increased wild-type G protein dissociation | neither allosteric ligand acted as a PAM | 
Cc1ccc2c(C(C[N+](=O)[O-])c3cccs3)c(-c3ccccc3)[nH]c2c1 (centres unmarked) [ZCZ011, 6-Methyl-3-(2-nitro-1-(thiophen-2-yl)ethyl)-2-phenyl-1 H-indole] | −20.0 ± 9.0 | abolished; also recorded: substantial reduction in G protein dissociation | −116.9 ± 10.1 | −64.2 ± 4.1 | −135.5 ± 6.3 | increased maximal CP55940-induced G protein dissociation |  | −167.3 ± 3.2 | increased wild-type G protein dissociation | neither allosteric ligand acted as a PAM | 
CCCCCCC(C)(C)c1ccc([C@@H]2C[C@H](O)CC[C@H]2CCCO)c(O)c1 [CP55940] | −113.1 ± 11.7 |  | −131.7 ± 10.4 | −69.8 ± 6.5 |  |  |  |  |  |  | EMAX, CP55940 + 10 μM GAT228 (hCB1 mutant I169A^2.56; [1]): −117.0 ± 7.4 ∆BRET.sec; EMAX, CP55940 + 10 μM GAT229 (hCB1 mutant I169A^2.56; [2]): −109.7 ± 8.3 ∆BRET.sec; EMAX, CP55940 Alone (hCB1 mutant I169A^2.56; [3]): −110.7 ± 10.3 ∆BRET.sec; G protein dissociation, AUC, 10 μM CP55940 + 10 μM ZCZ011 (hCB1 mutant F408A^8.54; [4]): −159.7 ± 13.4; EMAX, CP55940 + 10 μM GAT228 (hCB1 mutant F408A^8.54; [1]): −148.4 ± 11.4 ∆BRET.sec; EMAX, CP55940 + 10 μM GAT229 (hCB1 mutant F408A^8.54; [2]): −154.0 ± 14.5 ∆BRET.sec; EMAX, CP55940 Alone (hCB1 mutant F408A^8.54; [3]): −128.6 ± 12.1 ∆BRET.sec; G protein dissociation, AUC, 10 μM CP55940 + 10 μM ZCZ011 (hCB1 mutant F237A^4.46; [4]): −85.2 ± 9.9; EMAX, CP55940 + 10 μM GAT228 (hCB1 mutant F237A^4.46; [1]): −69.4 ± 6.4 ∆BRET.sec; EMAX, CP55940 + 10 μM GAT229 (hCB1 mutant F237A^4.46; [2]): −67.4 ± 8.3 ∆BRET.sec; EMAX, CP55940 Alone (hCB1 mutant F237A^4.46; [3]): −69.8 ± 6.7 ∆BRET.sec; G protein dissociation, AUC, 10 μM CP55940 + 10 μM ZCZ011 (hCB1 mutant F289A^5.53; [4]): −167.8 ± 6.9; EMAX, CP55940 + 10 μM GAT228 (hCB1 mutant F289A^5.53; [1]): −156.7 ± 5.3 ∆BRET.sec; EMAX, CP55940 + 10 μM GAT229 (hCB1 mutant F289A^5.53; [2]): −161.1 ± 6.5 ∆BRET.sec; EMAX, CP55940 Alone (hCB1 mutant F289A^5.53; [3]): −145.4 ± 5.7 ∆BRET.sec; G protein dissociation, AUC, 10 μM CP55940 + 10 μM ZCZ011 (WT hCB1; [4]): −215.9 ± 2.9; EMAX, CP55940 + 10 μM GAT228 (WT hCB1; [1]): −194.2 ± 7.3 ∆BRET.sec; EMAX, CP55940 + 10 μM GAT229 (WT hCB1; [2]): −205.1 ± 7.8 ∆BRET.sec; EMAX, CP55940 Alone (WT hCB1; [3]): −184.1 ± 3.8 ∆BRET.sec

Reference: article PMC10892375, “Determination of the Cannabinoid CB1 Receptor’s Positive Allosteric Modulator Binding Site through Mutagenesis Studies” (Pharmaceuticals, 2024)
